One series in a line: in vitro. As to conditions: African green monkey.
In another series the test system is SARS-COV-2. Put plainly: microbe, parasite or virus in culture. In kind it is cell-based. Details: SI (Selectivity Index, CC50/IC50): unit not given here. To be noted: for SI (Selectivity Index, CC50/IC50): SARS-COV-2, values >50 assumed to be 50; for IC50: read-out: SARS-COV-2 inhibition (IC50).
Where [1] appears, read: Severe acute respiratory syndrome coronavirus 2, Vero cells, 24 hours infection.
Where [2] appears, read: Severe acute respiratory syndrome coronavirus 2, Vero, 24 h.

Structures can show the parent of a compound that is named as a salt. Where two headings read alike, the source gives them in different places.

`COc1cc2cc3c(c(-c4ccc5nccc(N6CCNCC6)c5c4)c2cc1OC)C(=O)OC3` [Example 135, 6,7-dimethoxy-9-(4-(piperazin-1-yl)quinolin-6-yl)naphtho[2,3-c]furan-1(3H)-one] registered a CC50 in “in vitro” greater than 50 µM. Moreover, the “SI (Selectivity Index, CC50/IC50)” value in the series on SARS-COV-2 was found to be 2.90. For the same compound, the concentration for half-maximal inhibition (IC50) (commonly the concentration that inhibits the measured activity by half) with SARS-COV-2 (setting [1]) amounted to 17.2 µM.
As to `CCCCN(C)c1ccc(-c2c3c(c(OC)c4cc(OC)c(OC)cc24)C(=O)OC3)cn1.Cl` [Example 261, 4-(6-(butyl(methyl)amino)pyridin-3-yl)-6,7,9-trimethoxynaphtho[2,3-c]furan-1(3H)-one], in “in vitro”, the CC50 was greater than 50 µM. Also, the “SI (Selectivity Index, CC50/IC50)” value in the series on SARS-COV-2 is on record as 4.21. Also, the IC50 with SARS-COV-2 (setting [2]) was determined as 11.9 µM.
`COc1cc2cc3c(c(-c4ccc(N5CCCC(c6cccc(C)c6)C5)nc4)c2cc1OC)C(=O)OC3` (stereo not drawn) [Example 202, 6,7-dimethoxy-9-(6-(3-(m-tolyl)piperidin-1-yl)pyridin-3-yl)naphtho[2,3-c]furan-1(3H)-one] yielded a CC50 in the series “in vitro” of 38.4 µM. Besides, the “SI (Selectivity Index, CC50/IC50)” value in the series with SARS-COV-2 came to 38.01. Also, the IC50 with SARS-COV-2 (setting [1]) stood at 1.01 µM.
In the case of `COc1cc2cc3c(c(-c4ccc(N(C)C(=O)N5CCOCC5)nc4)c2cc1OC)C(=O)OC3` [Example 235, N-(5-(6,7-dimethoxy-3-oxo-1,3-dihydronaphtho[2,3-c]furan-4-yl)pyridin-2-yl)-N-methylmorpholin-4-carboxamide], the CC50 in the series “in vitro” is greater than 50 µM. In the series on SARS-COV-2, the “SI (Selectivity Index, CC50/IC50)” value is reported as 1.00. Besides, in the series on SARS-COV-2 (setting [1]), the IC50 was greater than 50 µM.
With `COc1cc2cc3c(c(-c4ccc(N5CCC(F)(F)CC5)nc4)c2cc1OC)C(=O)OC3` [Example 122, 9-(6-(4,4-difluoropiperidin-1-yl)pyridin-3-yl)-6,7-dimethoxynaphtho[2,3-c]furan-1(3H)-one], the CC50 in “in vitro” is greater than 50 µM. Also, the “SI (Selectivity Index, CC50/IC50)” value with SARS-COV-2 stood at 512.00. The IC50 in the series on SARS-COV-2 (setting [1]) is 0.17 µM.
As for `COCCN(C)C(=O)[C@@H]1CCCN1c1ncc(-c2c3c(cc4cc(OC)c(OC)cc24)COC3=O)cn1` [Example 33, (S)-1-(5-(6,7-dimethoxy-3-oxo-1,3-dihydronaphtho[2,3-c]furan-4-yl)pyrimidin-2-yl)-N-(2-methoxyethyl)-N-methylpyrrolidin-2-carboxamide], the CC50 in “in vitro” is greater than 50 µM. The “SI (Selectivity Index, CC50/IC50)” value in the series on SARS-COV-2 came to 1.00. For the same compound, in the series with SARS-COV-2 (setting [1]), the IC50 was greater than 50 µM.
`COc1cc2cc3c(c(-c4ccc(N(C)c5ncn(C)n5)nc4)c2cc1OC)C(=O)OC3` [Example 206, 6,7-dimethoxy-9-(6-(methyl(1-methyl-1H-1,2,4-triazol-3-yl)amino)pyridin-3-yl)naphtho[2,3-c]furan-1(3H)-one] registered a CC50 in “in vitro” greater than 50 µM. Also, the “SI (Selectivity Index, CC50/IC50)” value in the series with SARS-COV-2 stood at 2.79. In addition, the IC50 with SARS-COV-2 (setting [1]) was 17.9 µM.
The matching figures for `COc1cc2cc3c(c(-c4ccc(N5CCCC(C)C5)nc4)c2cc1OC)C(=O)OC3` (stereo not drawn) [Example 126, 6,7-dimethoxy-9-(6-(3-methylpiperidin-1-yl)pyridin-3-yl)naphtho[2,3-c]furan-1(3H)-one]: greater than 50 µM, 122.97 and 0.41 µM.
The matching figures for `COc1cc2cc3c(c(-c4ccnc(Cl)c4)c2cc1OC)C(=O)OC3` [Example 184, 9-(2-chloropyridin-4-yl)-6,7-dimethoxynaphtho[2,3-c]furan-1(3H)-one]: greater than 50 µM, 1.0 and greater than 50 µM.
In the series “in vitro”, `CCN(c1ccc(-c2c3c(cc4cc(OC)c(OC)cc24)COC3=O)cn1)C1CCCC1` [Example 191, 9-(6-(cyclopentyl(ethyl)amino)pyridin-3-yl)-6,7-dimethoxynaphtho[2,3-c]furan-1(3H)-one] showed a CC50 greater than 50 µM. Besides, the “SI (Selectivity Index, CC50/IC50)” value with SARS-COV-2 turned out to be 35.47. In the series with SARS-COV-2 (setting [1]), the IC50 stood at 1.41 µM.
The matching figures for `COc1cc2cc3c(c(-c4cnc(N5C[C@@H](C)O[C@@H](C)C5)nc4)c2cc1OC)C(=O)OC3` [Example 8, 9-(2-((2S,6R)-2,6-dimethylmorpholino)pyrimidin-5-yl)-6,7-dimethoxynaphtho[2,3-c]furan-1(3H)-one]: greater than 50 µM, 17.39 and 2.87 µM.
In “in vitro”, `COc1cc2cc3c(c(-c4ccc5nccc(Cl)c5c4)c2cc1OC)C(=O)OC3` [Example 138, 9-(4-chloroquinolin-6-yl)-6,7-dimethoxynaphtho[2,3-c]furan-1(3H)-one] yielded a CC50 greater than 50 µM. The “SI (Selectivity Index, CC50/IC50)” value with SARS-COV-2 is on record as 1.33. Besides, the IC50 in the series with SARS-COV-2 (setting [1]) came out at 37.7 µM.
The matching figures for `CCN(CC1CCCO1)c1ccc(-c2c3c(cc4cc(OC)c(OC)cc24)COC3=O)cn1` (stereo not drawn) [Example 193, 9-(6-(ethyl((tetrahydrofuran-2-yl)methyl)amino)pyridin-3-yl)-6,7-dimethoxynaphtho[2,3-c]furan-1(3H)-one]: greater than 50 µM, 6.46 and 7.74 µM.
The matching figures for `COCCN(C)c1c2c(cc3cc(OC)c(OC)cc13)COC2=O` [Example 5, 6,7-dimethoxy-9-((2-methoxyethyl)(methyl)amino)naphtho[2,3-c]furan-1(3H)-one]: greater than 50 µM, 1.00 and greater than 50 µM.
The matching figures for `COc1cc2cc3c(c(-c4cnc(N5CCN(C)CC5)nc4)c2cc1OC)C(=O)OC3` [Example 7]: greater than 50 µM, 3.74 and 13.4 µM.
For `COc1cc2cc3c(c(-c4ccc(N(C)C)cc4)c2cc1OC)C(=O)OC3.Cl` [Example 247, 9-(4-(dimethylamino)phenyl)-6,7-dimethoxynaphtho[2,3-c]furan-1(3H)-one], the CC50 in “in vitro” is greater than 50 µM. In addition, in the series on SARS-COV-2, the “SI (Selectivity Index, CC50/IC50)” value was found to be 344.5. The half-maximal inhibitory concentration (IC50) in the series with SARS-COV-2 (setting [2]) was 0.15 µM.
Compound `COc1cc2cc3c(c(-c4cnc(N5CCC[C@H]5C(N)=O)nc4)c2cc1OC)C(=O)OC3` [Example 49, (S)-1-(5-(6,7-dimethoxy-3-oxo-1,3-dihydronaphtho[2,3-c]furan-4-yl)pyrimidin-2-yl) pyrrolidin-2-carboxamide] came in with a CC50 in “in vitro” greater than 50 µM. In addition, the “SI (Selectivity Index, CC50/IC50)” value with SARS-COV-2 came out at 1.00. For the same compound, in the series with SARS-COV-2 (setting [1]), the IC50 was greater than 50 µM.
For `COc1cc2cc3c(c(-c4cnc(N(C)Cc5ccc(C)o5)nc4)c2cc1OC)C(=O)OC3` [Example 103, 6,7-dimethoxy-9-(2-(methyl((5-methylfuran-2-yl)methyl)amino)pyrimidin-5-yl)naphtho[2,3-c]furan-1(3H)-one hydrochloride], in “in vitro”, the CC50 was greater than 50 µM. For the same compound, in the series with SARS-COV-2, the “SI (Selectivity Index, CC50/IC50)” value worked out at 175.17. For the same compound, the half-inhibitory concentration (IC50) with SARS-COV-2 (setting [2]) was found to be 0.29 µM.
In the series “in vitro”, `COc1cc2cc3c(c(-c4cnc(N(C)CC5CC5)nc4)c2cc1OC)C(=O)OC3` [Example 68, 9-(2-((cyclopropylmethyl)(methyl)amino)pyrimidin-5-yl)-6,7-dimethoxynaphtho[2,3-c]furan-1(3H)-one] came in with a CC50 greater than 50 µM. Besides, the “SI (Selectivity Index, CC50/IC50)” value with SARS-COV-2 is on record as 270.89. In addition, in the series with SARS-COV-2 (setting [1]), the 50% inhibitory concentration (IC50) came to 0.18 µM.
In “in vitro”, `COCCN(CCOC)c1ccc(-c2c3c(cc4cc(OC)c(OC)cc24)COC3=O)cn1` [Example 174, 9-(6-(bis(2-methoxyethyl)amino)pyridin-3-yl)-6,7-dimethoxynaphtho[2,3-c]furan-1(3H)-one] displayed a CC50 greater than 50 µM. In the series on SARS-COV-2, the “SI (Selectivity Index, CC50/IC50)” value was determined as 2.62. In addition, the 50% inhibitory concentration (IC50) in the series with SARS-COV-2 (setting [1]) came to 19.1 µM.
Turning to `CCN(CC)c1ccc(-c2c3c(cc4cc(OC)c(OC)cc24)COC3=O)cn1` [Example 160, 9-(6-(diethylamino)pyridin-3-yl)-6,7-dimethoxynaphtho[2,3-c]furan-1(3H)-one], the CC50 in the series “in vitro” was greater than 50 µM. In the series with SARS-COV-2, the “SI (Selectivity Index, CC50/IC50)” value is on record as 60.45. Also, in the series with SARS-COV-2 (setting [1]), the IC50 was found to be 0.83 µM.
The matching figures for `COc1cc2cc3c(c(-c4ccc5c(O)cc(C)nc5c4C)c2cc1OC)C(=O)OC3` [Example 146, 9-(4-hydroxy-2,8-dimethylquinolin-7-yl)-6,7-dimethoxynaphtho[2,3-c]furan-1(3H)-one]: greater than 50 µM, 1.0 and greater than 50 µM.
The matching figures for `COc1cc2cc3c(c(-c4cnc(NC5CC5)nc4)c2cc1OC)C(=O)OC3` [Example 69, 9-(2-(cyclopropylamino)pyrimidin-5-yl)-6,7-dimethoxynaphtho[2,3-c]furan-1(3H)-one]: greater than 50 µM, 1.00 and greater than 50 µM.
Turning to `COc1cc2cc3c(c(-c4ccc5cccnc5c4)c2cc1OC)C(=O)OC3` [Example 118, 6,7-dimethoxy-9-(quinolin-7-yl)naphtho[2,3-c]furan-1(3H)-one], the CC50 in the series “in vitro” is greater than 50 µM. In addition, the “SI (Selectivity Index, CC50/IC50)” value in the series with SARS-COV-2 is on record as 257.92. For the same compound, the IC50 in the series with SARS-COV-2 (setting [1]) came to 0.19 µM.
Consider `COc1cc2cc3c(c(-c4cnc(OC)c(-c5nc6ccccc6[nH]5)c4)c2cc1OC)C(=O)OC3` [Example 204, 9-(5-(1H-benzo[d]imidazol-2-yl)-6-methoxypyridin-3-yl)-6,7-dimethoxynaphtho[2,3-c]furan-1(3H)-one], for which the CC50 in the series “in vitro” was 24.2 µM. Moreover, the “SI (Selectivity Index, CC50/IC50)” value in the series on SARS-COV-2 was 0.93. Besides, the IC50 in the series on SARS-COV-2 (setting [2]) stood at 25.9 µM.
As for `COc1cc2cc3c(c(-c4ccc(N5CCC6(CC5)OCCO6)nc4)c2cc1OC)C(=O)OC3` [Example 166, 9-(6-(1,4-dioxa-8-azaspiro[4.5]decan-8-yl)pyridin-3-yl)-6,7-dimethoxynaphtho[2,3-c]furan-1(3H)-one], the CC50 in “in vitro” is greater than 50 µM. Further, in the series with SARS-COV-2, the “SI (Selectivity Index, CC50/IC50)” value was determined as 18.50. The IC50 with SARS-COV-2 (setting [1]) amounted to 2.7 µM.
The matching figures for `COc1cc2cc3c(c(N4CCN(c5ccc(Br)cn5)CC4)c2cc1OC)C(=O)OC3` [Example 129, 9-(4-(5-bromopyridin-2-yl)piperazin-1-yl)-6,7-dimethoxynaphtho[2,3-c]furan-1(3H)-one]: greater than 50 µM, 2.29 and 21.8 µM.

(Values after patent publication US20240368104A1, “Novel Dialkoxynaphtho[2,3-C]Furan-1(3H)-One Derivatives and Pharmaceutical Composition For Preventing or Treating Respiratory Disease or SARS-COV-2 Infection Disease, Comprising Same” (priority 2021, published 2024).)
